Patent US9206219B2, “17-hydroxy-17-pentafluorethyl-estra-4,9(10)-dien-11-aryl derivatives, methods for the production thereof and the use thereof for treating diseases” (Bayer Intellectual Property GmbH, priority 2009, dated 2015)

Legend:
[1] = Metabolic stability in rat liver microsomes; assay type: in vitro ADME; settings: calculated from liver microsome clearance
Description: Determination of Metabolic Stability in Human and Rat Liver Microsomes
The incubations were conducted with 2.4 ml of HLM solution (protein content 0.5 mg/ml), 30 μl of the test compound (final concentration 1 μM) and 0.6 ml of the cofactor mixture (=NADPH-generating system composed of 3 IU glucose-6-phosphate dehydrogenase, 14.6 mg glucose-6-phosphate, 1.2 mg NADP) at 37° C. in 100 mM phosphate buffer at pH 7.4. Samples were taken at 6 time points (2-60 min) and precipitated with an equal volume of methanol, and the recovery of the test substances used in the supernatant was determined by LC-MS/MS analysis. The half-life of substance degradation determined therefrom was used to calculate what is called the intrinsic clearance of the substance in the liver microsome preparation. […] In addition, under the assumptions that (i) absorption of the test substance is 100%, and (ii) the first pass is completely reflected by liver microsome metabolism, a maximum oral bioavailability (Fmax) was calculated.

[2] = biological target: T1, human progesterone receptor A (Homo sapiens, UniProt P06401); assay: Progesterone receptor-antagonistic action in stably transfected SK-N-MC cells, MMTV-LUC reporter (PR-A); assay type: cell-based; settings: antagonistic potency vs 0.1 nmol/l promegestone, 24 hours
T1 construct: expressed in transfected cells; host or cells: SK-N-MC human neuroblastoma cells, stably transfected with pRChPR-A-neo and pMMTV-LUC
T1 sequence (P06401 1-769 isoform P06401-2): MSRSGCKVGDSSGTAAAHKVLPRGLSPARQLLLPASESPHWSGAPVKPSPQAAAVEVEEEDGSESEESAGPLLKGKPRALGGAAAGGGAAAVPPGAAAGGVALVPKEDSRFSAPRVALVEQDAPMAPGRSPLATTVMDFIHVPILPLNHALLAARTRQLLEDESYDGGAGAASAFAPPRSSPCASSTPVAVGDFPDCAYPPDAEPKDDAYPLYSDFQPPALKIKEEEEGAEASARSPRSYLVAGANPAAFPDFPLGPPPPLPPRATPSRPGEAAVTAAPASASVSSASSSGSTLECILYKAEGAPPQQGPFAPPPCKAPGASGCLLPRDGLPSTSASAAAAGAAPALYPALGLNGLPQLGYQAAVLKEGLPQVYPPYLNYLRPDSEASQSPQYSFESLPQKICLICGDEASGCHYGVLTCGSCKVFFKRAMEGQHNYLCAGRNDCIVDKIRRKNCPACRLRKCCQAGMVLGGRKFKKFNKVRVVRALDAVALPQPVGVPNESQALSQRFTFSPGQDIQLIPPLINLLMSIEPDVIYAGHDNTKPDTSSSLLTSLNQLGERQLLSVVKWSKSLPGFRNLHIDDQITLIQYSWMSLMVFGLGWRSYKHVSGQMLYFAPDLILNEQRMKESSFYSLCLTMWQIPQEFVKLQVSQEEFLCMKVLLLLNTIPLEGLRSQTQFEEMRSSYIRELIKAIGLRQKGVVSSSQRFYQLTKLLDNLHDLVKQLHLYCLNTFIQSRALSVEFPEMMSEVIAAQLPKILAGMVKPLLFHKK
How it was run: (§1)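 Stably transfected SK-N-MC cells express human PR-B or PR-A plus MMTV-LUC. For antagonism they were co-treated with 0.1 nmol/l promegestone and compound (0.01 nmol/l upward) for 24 hours. Luciferase in lysates was read as RLU and reported as % efficacy and IC50.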

[3] = biological target: T2, human progesterone receptor B (Homo sapiens, UniProt P06401); assay: Progesterone receptor-antagonistic action in stably transfected SK-N-MC cells, MMTV-LUC reporter (PR-B); assay type: cell-based; settings: antagonistic potency vs 0.1 nmol/l promegestone, 24 hours
T2 construct: expressed in transfected cells; host or cells: SK-N-MC human neuroblastoma cells, stably transfected with pRChPR-B-neo and pMMTV-LUC
T2 sequence (P06401 1-933): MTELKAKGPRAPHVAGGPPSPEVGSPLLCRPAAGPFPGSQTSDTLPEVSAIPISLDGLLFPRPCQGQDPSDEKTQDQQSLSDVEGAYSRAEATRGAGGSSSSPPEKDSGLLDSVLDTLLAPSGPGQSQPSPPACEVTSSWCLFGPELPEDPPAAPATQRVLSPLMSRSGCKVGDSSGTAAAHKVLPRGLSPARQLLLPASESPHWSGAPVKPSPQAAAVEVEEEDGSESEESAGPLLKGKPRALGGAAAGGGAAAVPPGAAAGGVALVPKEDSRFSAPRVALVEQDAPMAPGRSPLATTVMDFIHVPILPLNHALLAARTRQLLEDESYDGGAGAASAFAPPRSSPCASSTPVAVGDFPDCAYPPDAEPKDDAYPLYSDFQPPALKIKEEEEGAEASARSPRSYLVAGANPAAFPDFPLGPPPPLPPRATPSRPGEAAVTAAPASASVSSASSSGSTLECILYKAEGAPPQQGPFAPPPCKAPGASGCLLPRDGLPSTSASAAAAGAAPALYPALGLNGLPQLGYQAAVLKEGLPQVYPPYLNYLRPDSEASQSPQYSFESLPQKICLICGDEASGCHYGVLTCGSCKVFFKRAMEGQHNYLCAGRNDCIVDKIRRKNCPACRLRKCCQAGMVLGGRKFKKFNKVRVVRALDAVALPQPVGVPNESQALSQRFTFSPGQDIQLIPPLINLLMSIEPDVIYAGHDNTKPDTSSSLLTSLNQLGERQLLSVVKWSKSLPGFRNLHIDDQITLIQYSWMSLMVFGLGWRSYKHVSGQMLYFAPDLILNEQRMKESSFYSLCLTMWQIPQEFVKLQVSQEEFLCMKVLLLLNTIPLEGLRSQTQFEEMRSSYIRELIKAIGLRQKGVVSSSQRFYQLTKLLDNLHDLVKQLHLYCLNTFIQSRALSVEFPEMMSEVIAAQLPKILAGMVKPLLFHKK
How it was run: as §1

| Predicted Fmax (maximum oral bioavailability) [1] [%] | IC50 [2] [nM] | IC50 [3] [nM] | SMILES |
| --- | --- | --- | --- |
| 18 | 0.095 | 0.11 | C[C@]12C[C@H](c3ccc(CCc4ccccn4)cc3)C3=C4CCC(=O)C=C4CC[C@H]3[C@@H]1CC[C@@]2(O)C(F)(F)C(F)(F)F [Example 2, (8S,11R,13S,14S,17S)-17-hydroxy-13-methyl-17-pentafluoroethyl-11-[4-(2-pyridin-2-ylethyl)phenyl]-1,2,6,7,8,11,12,13,14,15,16,17-dodecahydrocyclopenta[a]phenanthren-3-one] |
| 15 | 0.09 | 0.04 | Cc1nc(CCc2ccc([C@H]3C[C@@]4(C)[C@@H](CC[C@@]4(O)C(F)(F)C(F)(F)F)[C@@H]4CCC5=CC(=O)CCC5=C43)cc2)cs1 [Example 3, (8S,11R,13S,14S,17S)-17-hydroxy-13-methyl-11-{4-[2-(2-methylthiazol-4-yl)ethyl]phenyl}-17-pentafluoroethyl-1,2,6,7,8,11,12,13,14,15,16,17-dodecahydrocyclopenta[a]phenanthren-3-one] |
| 20 | 0.08 | 0.09 | C[C@]12C[C@H](c3ccc(CCc4cccnc4)cc3)C3=C4CCC(=O)C=C4CC[C@H]3[C@@H]1CC[C@@]2(O)C(F)(F)C(F)(F)F [Example 7, (8S,11R,13S,14S,17S)-17-hydroxy-13-methyl-17-pentafluoroethyl-11-[4-(2-pyridin-3-ylethyl)phenyl]-1,2,6,7,8,11,12,13,14,15,16,17-dodecahydrocyclopenta[a]phenanthren-3-one] |
| 19 | 0.08 | 0.09 | C[C@]12C[C@H](c3ccc(CCc4ccncc4)cc3)C3=C4CCC(=O)C=C4CC[C@H]3[C@@H]1CC[C@@]2(O)C(F)(F)C(F)(F)F [Example 8, (8S,11R,13S,14S,17S)-17-hydroxy-13-methyl-17-pentafluoroethyl-11-[4-(2-pyridin-4-ylethyl)phenyl]-1,2,6,7,8,11,12,13,14,15,16,17-dodecahydrocyclopenta[a]phenanthren-3-one] |
| 4.9 | 0.06 | 0.1 | C[C@]12C[C@H](c3ccc(CCC#N)cc3)C3=C4CCC(=O)C=C4CC[C@H]3[C@@H]1CC[C@@]2(O)C(F)(F)C(F)(F)F [Example 9, 3-[4-((8S,11R,13S,14S,17S)-17-hydroxy-13-methyl-3-oxo-17-pentafluoroethyl-2,3,6,7,8,11,12,13,14,15,16,17-dodecahydro-1H-cyclopenta[a]phenanthren-11-yl)phenyl]propionitrile] |
| 63 | 0.4 | 0.8 | CCNC(=O)NCc1ccc([C@H]2C[C@@]3(C)C(CC[C@@]3(O)C(F)(F)C(F)(F)F)C3CCC4=CC(=O)CCC4=C32)cc1 (stereo partly drawn) [Example 17, 1-ethyl-3-[4-((8S,11R,13S,14S,17S)-17-hydroxy-13-methyl-3-oxo-17-pentafluoroethyl-2,3,6,7,8,11,12,13,14,15,16,17-dodecahydro-M-cyclopenta[a]phenanthren-11-yl)benzyl]urea] |
| 29 | 0.3 | 0.8 | C[C@]12C[C@H](c3ccc(CNC(=O)NCc4ccccc4)cc3)C3=C4CCC(=O)C=C4CC[C@H]3[C@@H]1CC[C@@]2(O)C(F)(F)C(F)(F)F [Example 23, 1-benzyl-3-[4-((8S,11R,13S,14S,17S)-17-hydroxy-13-methyl-3-oxo-17-pentafluoroethyl-2,3,6,7,8,11,12,13,14,15,16,17-dodecahydro-1H-cyclopenta[a]phenanthren-11-yl)benzyl]urea] |
|  | 0.1 | 0.1 | CCOC(=O)c1ccc(NC(=O)OCc2ccc([C@H]3C[C@@]4(C)[C@@H](CC[C@@]4(O)C(F)(F)C(F)(F)F)[C@@H]4CCC5=CC(=O)CCC5=C43)cc2)cc1 [Example 52, 4-[4-((8S,11R,13S,14S,17S)-17-hydroxy-13-methyl-3-oxo-17-pentafluoroethyl-2,3,6,7,8,11,12,13,14,15,16,17-dodecahydro-1H-cyclopenta[a]phenanthren-11-yl)benzyloxycarbonylamino]benzoic acid ethyl ester] |
|  | 0.3 | 0.1 | C[C@]12C[C@H](c3ccc(CNC(=O)c4cccnc4)cc3)C3=C4CCC(=O)C=C4CC[C@H]3[C@@H]1CC[C@@]2(O)C(F)(F)C(F)(F)F [Example 54, N-[4-((8S,11R,13S,14S,17S)-17-hydroxy-13-methyl-3-oxo-17-pentafluoroethyl-2,3,6,7,8,11,12,13,14,15,16,17-dodecahydro-1H-cyclopenta[a]phenanthren-11-yl)benzyl]nicotinamide] |
|  | 8 | 10 | C[C@]12C[C@H](c3ccc(COC(=O)NCCC(=O)O)cc3)C3=C4CCC(=O)C=C4CC[C@H]3[C@@H]1CC[C@@]2(O)C(F)(F)C(F)(F)F [Example 55, 3-[4-((8S,11R,13S,14S,17S)-17-hydroxy-13-methyl-3-oxo-17-pentafluoroethyl-2,3,6,7,8,11,12,13,14,15,16,17-dodecahydro-1H-cyclopenta[a]phenanthren-11-yl)benzyloxycarbonylamino]propionic acid] |
|  | 0.2 | 0.3 | C[C@]12C[C@H](c3ccc(COC(=O)NCc4ccccc4)cc3)C3=C4CCC(=O)C=C4CC[C@H]3[C@@H]1CC[C@@]2(O)C(F)(F)C(F)(F)F [Example 56, benzylcarbamic acid 4-((8S,11R,13S,14S,17S)-17-hydroxy-13-methyl-3-oxo-17-pentafluoroethyl-2,3,6,7,8,11,12,13,14,15,16,17-dodecahydro-1H-cyclopenta[a]phenanthren-11-yl)benzyl ester] |
|  | 0.1 | 0.1 | CCOC(=O)CCNC(=O)OCc1ccc([C@H]2C[C@@]3(C)[C@@H](CC[C@@]3(O)C(F)(F)C(F)(F)F)[C@@H]3CCC4=CC(=O)CCC4=C32)cc1 [Example 57, 3-[4-((8S,11R,13S,14S,17S)-17-hydroxy-13-methyl-3-oxo-17-pentafluoroethyl-2,3,6,7,8,11,12,13,14,15,16,17-dodecahydro-1H-cyclopenta[a]phenanthren-11-yl)benzyloxycarbonylamino]propionic acid ethyl ester] |
